{"source": "patent US20250249006A1", "about": "“TREATMENT” (Verona Pharma PLC, priority 2024, published 2025)", "key": {"[1]": {"tested_on": "patients aged 40-80 years with moderate to severe COPD", "experiment": "Clinical studies, ensifentrine vs placebo: COPD symptom responders (E-RS −2 units or TDI +1 unit) in patients with low FEV1 response", "type": "in vivo", "conditions": "for Ensifentrine vs. Placebo Odds Ratio, E-RS (−2 Unit) or TDI (+1 Unit) Responders / Odds in favor of a response, E-RS (−2 Unit) or TDI (+1 Unit) Responders / Ensifentrine vs. Placebo Odds Ratio, TDI (+1 Unit) or E-RS (−2 Unit) Responders / Odds in favor of a response, TDI (+1 Unit) or E-RS (−2 Unit) Responders: logistic regression; for Ensifentrine vs. Placebo Odds Ratio, E-RS (−2 Unit) or TDI (+1 Unit) Responders / Odds in favor of a response, E-RS (−2 Unit) or TDI (+1 Unit) Responders / % E-RS (−2 Unit) or TDI (+1 Unit) Responders / % responders, E-RS (−2 Units) or TDI (+1 Unit) Responders / Ensifentrine v placebo Odds Ratio, E-RS (−2 Units) or TDI (+1 Unit) Responders / Odds in favour of response, E-RS (−2 Units) or TDI (+1 Unit) Responders / Ensifentrine vs. Placebo Odds Ratio, TDI (+1 Unit) or E-RS (−2 Unit) Responders / Odds in favor of a response, TDI (+1 Unit) or E-RS (−2 Unit) Responders / % TDI (+1 Unit) or E-RS (−2 Unit) Responders: pooled mITT; for % E-RS (−2 Unit) or TDI (+1 Unit) Responders / % responders, E-RS (−2 Units) or TDI (+1 Unit) Responders / % TDI (+1 Unit) or E-RS (−2 Unit) Responders: 3 mg BID nebuliser; for % responders, E-RS (−2 Units) or TDI (+1 Unit) Responders / Ensifentrine v placebo Odds Ratio, E-RS (−2 Units) or TDI (+1 Unit) Responders / Odds in favour of response, E-RS (−2 Units) or TDI (+1 Unit) Responders: improvement in morning trough FEV1 less than 40 mL (table line prints <60 mL); for proportion of patients with a clinically important improvement in symptoms: over 24 weeks", "procedure": "(§1) Clinical studies were conducted to determine the efficacy of ensifentrine in treating COPD compared with placebo. Ensifentrine was administered by nebuliser at a dose of 3 mg twice daily (BID) for 24 weeks. The studies were multi-centre, randomized, double-blind, parallel-group, placebo-controlled trials.\n(§2) The study population included patients aged 40-80 years with moderate to severe COPD (FEV1 30%-70% p.n., FEV1/forced vital capacity (FVC) ratio<0.7, with mMRC≥2). The randomization stratified (a) the use of stable background maintenance LAMA or LABA therapy use (approx. 50%. yes or no) and (b) cigarette smoking (current or former). Inhaled corticosteroid (ICS) maintenance therapy was permitted in up to 20% of patients under certain provisions.\n(§3) The primary endpoint was change from baseline in average FEV1 area under the curve AUC0-12h post-dose at week 12. Also assessed were COPD symptoms and quality of life (QoL) in patients showing lower responses in terms of lung function, and in particular patients with: (i) improvement in average FEV1 AUC0-12h of less than 100 mL and (ii) improvement in morning trough FEV1 of less than 100 mL, less than 60 mL or less than 40 mL.\n(§4) COPD symptoms were assessed using Evaluating Respiratory Symptoms (E-RS; EXACT-Respiratory Symptoms, The minimal clinically important difference (MCID) of the E-RS is a total score of −2 units. User Manual (Version 3.0), October 2014) and Transitional Dyspnea Index (TDI; Mahler et al, The MCID of the transition dyspnea index is a total score of one unit. COPD 2005, 2:99-103.) and QoL was assessed using the St. George's Respiratory Questionnaire (SGRQ; Jones, St. George's Respiratory Questionnaire: The MCID of the SGRQ is a total score of −4 units. COPD 2005, 2:75-79.)."}, "[2]": {"tested_on": "patients aged 40-80 years with moderate to severe COPD", "experiment": "Clinical studies, ensifentrine vs placebo: quality of life responders (SGRQ −4 units) in patients with low FEV1 response", "type": "in vivo", "procedure": "as §1, §2, §3, §4"}, "[3]": {"conditions": "FEV1 AUC0-12h <100 mL or morning trough FEV1 <100, <60 or <40 mL, overall conclusion"}, "[4]": {"conditions": "average FEV1 AUC0-12h <100 mL at Week 12, Week 6"}, "[5]": {"conditions": "average FEV1 AUC0-12h <100 mL at Week 12, Week 12"}, "[6]": {"conditions": "average FEV1 AUC0-12h <100 mL at Week 12, Week 24"}, "[7]": {"conditions": "morning trough FEV1 <60 mL at Week 6, Week 6"}, "[8]": {"conditions": "morning trough FEV1 <60 mL at Week 12, Week 12"}, "[9]": {"conditions": "morning trough FEV1 <60 mL at Week 24, Week 24"}, "[10]": {"conditions": "morning trough FEV1 <100 mL at Week 6, Week 6"}, "[11]": {"conditions": "morning trough FEV1 <100 mL at Week 12, Week 12"}, "[12]": {"conditions": "morning trough FEV1 <100 mL at Week 24, Week 24"}}}
{"smiles": "COc1cc2c(cc1OC)-c1c/c(=N\\c3c(C)cc(C)cc3C)n(CCNC(N)=O)c(=O)n1CC2", "note": "[Ensifentrine, N-(2-{(2E)-9,10-dimethoxy-4-oxo-2-[(2,4,6-trimethylphenyl)imino]-6,7-dihydro-2H-pyrimido[6,1-a]isoquinolin-3(4H)-yl}ethyl)urea]", "values": [{"measurement": "subjects achieving symptom MCID", "setting": "[1]; [3]", "value": "approximately 70%"}, {"measurement": "Ensifentrine vs. Placebo Odds Ratio, E-RS (−2 Unit) or TDI (+1 Unit) Responders", "setting": "[1]; [4]", "value": 1.42}, {"measurement": "Odds in favor of a response, E-RS (−2 Unit) or TDI (+1 Unit) Responders", "setting": "[1]; [4]", "value": 1.69}, {"measurement": "Ensifentrine vs. Placebo Odds Ratio, E-RS (−2 Unit) or TDI (+1 Unit) Responders", "setting": "[1]; [5]", "value": 1.63}, {"measurement": "Odds in favor of a response, E-RS (−2 Unit) or TDI (+1 Unit) Responders", "setting": "[1]; [5]", "value": 2.69}, {"measurement": "Ensifentrine vs. Placebo Odds Ratio, E-RS (−2 Unit) or TDI (+1 Unit) Responders", "setting": "[1]; [6]", "value": 1.38}, {"measurement": "Odds in favor of a response, E-RS (−2 Unit) or TDI (+1 Unit) Responders", "setting": "[1]; [6]", "value": 2.91}, {"measurement": "% E-RS (−2 Unit) or TDI (+1 Unit) Responders", "setting": "[1]; average FEV1 AUC0-12h <100 mL at Week 12, responders at Week 6", "value": 66.3, "unit": "%"}, {"measurement": "% E-RS (−2 Unit) or TDI (+1 Unit) Responders", "setting": "[1]; average FEV1 AUC0-12h <100 mL at Week 12, responders at Week 12", "value": 71.2, "unit": "%"}, {"measurement": "% E-RS (−2 Unit) or TDI (+1 Unit) Responders", "setting": "[1]; average FEV1 AUC0-12h <100 mL at Week 12, responders at Week 24", "value": 72.7, "unit": "%"}, {"measurement": "% responders, E-RS (−2 Units) or TDI (+1 Unit) Responders", "setting": "[1]; Week 6", "value": 67.1, "unit": "%"}, {"measurement": "Ensifentrine v placebo Odds Ratio, E-RS (−2 Units) or TDI (+1 Unit) Responders", "setting": "[1]; Week 6", "value": 1.468}, {"measurement": "Odds in favour of response, E-RS (−2 Units) or TDI (+1 Unit) Responders", "setting": "[1]; Week 6", "value": 1.453}, {"measurement": "% responders, E-RS (−2 Units) or TDI (+1 Unit) Responders", "setting": "[1]; Week 12", "value": 70.4, "unit": "%"}, {"measurement": "Ensifentrine v placebo Odds Ratio, E-RS (−2 Units) or TDI (+1 Unit) Responders", "setting": "[1]; Week 12", "value": 1.433}, {"measurement": "Odds in favour of response, E-RS (−2 Units) or TDI (+1 Unit) Responders", "setting": "[1]; Week 12", "value": 2.338}, {"measurement": "% responders, E-RS (−2 Units) or TDI (+1 Unit) Responders", "setting": "[1]; Week 24", "value": 73.0, "unit": "%"}, {"measurement": "Ensifentrine v placebo Odds Ratio, E-RS (−2 Units) or TDI (+1 Unit) Responders", "setting": "[1]; Week 24", "value": 1.370}, {"measurement": "Odds in favour of response, E-RS (−2 Units) or TDI (+1 Unit) Responders", "setting": "[1]; Week 24", "value": 3.238}, {"measurement": "proportion of patients with a clinically important improvement in symptoms", "setting": "[1]; increase in average FEV1 AUC0-12h less than 100 mL at Week 12", "value": "at least ⅔"}, {"measurement": "proportion of patients with a clinically important improvement in symptoms", "setting": "[1]; increase in morning trough FEV1 less than 100 mL at Week 12", "value": "at least ⅔"}, {"measurement": "Ensifentrine vs. Placebo Odds Ratio, TDI (+1 Unit) or E-RS (−2 Unit) Responders", "setting": "[1]; [7]", "value": 1.42}, {"measurement": "Odds in favor of a response, TDI (+1 Unit) or E-RS (−2 Unit) Responders", "setting": "[1]; [7]", "value": 1.35}, {"measurement": "% TDI (+1 Unit) or E-RS (−2 Unit) Responders", "setting": "[1]; morning trough FEV1 <60 mL at Week 6, responders at Week 6", "value": 65.3, "unit": "%"}, {"measurement": "Ensifentrine vs. Placebo Odds Ratio, TDI (+1 Unit) or E-RS (−2 Unit) Responders", "setting": "[1]; [8]", "value": 1.59}, {"measurement": "Odds in favor of a response, TDI (+1 Unit) or E-RS (−2 Unit) Responders", "setting": "[1]; [8]", "value": 2.83}, {"measurement": "% TDI (+1 Unit) or E-RS (−2 Unit) Responders", "setting": "[1]; morning trough FEV1 <60 mL at Week 12, responders at Week 12", "value": 71.3, "unit": "%"}, {"measurement": "Ensifentrine vs. Placebo Odds Ratio, TDI (+1 Unit) or E-RS (−2 Unit) Responders", "setting": "[1]; [9]", "value": 1.36}, {"measurement": "Odds in favor of a response, TDI (+1 Unit) or E-RS (−2 Unit) Responders", "setting": "[1]; [9]", "value": 2.74}, {"measurement": "% TDI (+1 Unit) or E-RS (−2 Unit) Responders", "setting": "[1]; morning trough FEV1 <60 mL at Week 24, responders at Week 24", "value": 71.7, "unit": "%"}, {"measurement": "Ensifentrine vs. Placebo Odds Ratio, E-RS (−2 Unit) or TDI (+1 Unit) Responders", "setting": "[1]; [10]", "value": 1.43}, {"measurement": "Odds in favor of a response, E-RS (−2 Unit) or TDI (+1 Unit) Responders", "setting": "[1]; [10]", "value": 1.47}, {"measurement": "% E-RS (−2 Unit) or TDI (+1 Unit) Responders", "setting": "[1]; morning trough FEV1 <100 mL at Week 6, responders at Week 6", "value": 66.1, "unit": "%"}, {"measurement": "Ensifentrine vs. Placebo Odds Ratio, E-RS (−2 Unit) or TDI (+1 Unit) Responders", "setting": "[1]; [11]", "value": 1.73}, {"measurement": "Odds in favor of a response, E-RS (−2 Unit) or TDI (+1 Unit) Responders", "setting": "[1]; [11]", "value": 2.96}, {"measurement": "% E-RS (−2 Unit) or TDI (+1 Unit) Responders", "setting": "[1]; morning trough FEV1 <100 mL at Week 12, responders at Week 12", "value": 71.9, "unit": "%"}, {"measurement": "Ensifentrine vs. Placebo Odds Ratio, E-RS (−2 Unit) or TDI (+1 Unit) Responders", "setting": "[1]; [12]", "value": 1.42}, {"measurement": "Odds in favor of a response, E-RS (−2 Unit) or TDI (+1 Unit) Responders", "setting": "[1]; [12]", "value": 2.75}, {"measurement": "% E-RS (−2 Unit) or TDI (+1 Unit) Responders", "setting": "[1]; morning trough FEV1 <100 mL at Week 24, responders at Week 24", "value": 72.0, "unit": "%"}, {"measurement": "subjects achieving QoL MCID", "setting": "[2]; [3]", "value": "~50", "unit": "%"}, {"measurement": "Ensifentrine vs. Placebo Odds Ratio, SGRQ (−4 Unit) Responders", "setting": "[2]; average FEV1 AUC0-12h <100 mL at Week 12, Week 6, logistic regression, pooled mITT", "value": 1.32}]}
